Laboratory results taken from PubChem BioAssay (NCI).
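The compound was tested at five concentrations on cells cultured in 96-well plates, with a 48-hour exposure period. GI50 is the concentration that inhibits growth by half. TGI: total growth inhibition.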

Assays:
Test in all cases: inhibition of tumour cell growth, NCI panel, 48 h
[1] = system: OVCAR-4 ovarian
[2] = system: OVCAR-5 ovarian
[3] = system: DU-145 prostate
[4] = system: UO-31 renal
[5] = system: HOP-92 NSCLC
[6] = system: TK-10 renal
[7] = system: MDA-MB-435
[8] = system: HCT-116 colon
[9] = system: UACC-257 melanoma
[10] = system: T-47D breast
[11] = system: MDA-MB-231 breast
[12] = system: HT29 colon
[13] = system: EKVX NSCLC
[14] = system: ACHN renal
[15] = system: NCI/ADR-RES ovarian
[16] = system: HS 578T breast
[17] = system: COLO 205 colon
[18] = system: NCI-H522 lung
[19] = system: MCF7 breast
[20] = system: A549 NSCLC
[21] = system: NCI-H460 lung
[22] = system: IGROV1 ovarian
[23] = system: CAKI-1 renal
[24] = system: KM12 colon
[25] = system: SK-OV-3 ovarian
[26] = system: HCT-15 colon
[27] = system: HOP-62 NSCLC
[28] = system: SF-295 CNS
[29] = system: PC-3 prostate
[30] = system: M14 melanoma
[31] = system: SK-MEL-28 melanoma
[32] = system: SNB-19 CNS
[33] = system: OVCAR-3 ovarian
[34] = system: SF-539 CNS
[35] = system: 786-0 renal
[36] = system: SK-MEL-2 melanoma
[37] = system: SF-268 CNS
[38] = system: MALME-3M melanoma
[39] = system: RPMI-8226 leukemia
[40] = system: SW-620 colon
[41] = system: RXF 393 renal
[42] = system: OVCAR-8 ovarian
[43] = system: NCI-H226 lung
[44] = system: NCI-H23 lung
[45] = system: U251 CNS
[46] = system: UACC-62 melanoma
[47] = system: SN12C renal
[48] = system: SK-MEL-5 melanoma
[49] = system: A498 renal
[50] = system: BT-549 breast
[51] = system: HCC-2998 colon

CN1CCN(CCCOc2cccc3nc(Nc4cc(Cl)cc(Cl)c4)ccc23)CC1 gave a GI50 [1] of 2550 nM, a TGI [1] of 8140 nM and a GI50 [2] of 1790 nM. The TGI [2] was 3430 nM, the GI50 [3] was 1690 nM and the TGI [3] was 3130 nM. It also gave a GI50 [4] of 1490 nM, a TGI [4] of 2950 nM and a GI50 [5] of 1590 nM. It also gave a TGI [5] of 4820 nM, a GI50 [6] of 1750 nM and a TGI [6] of 3170 nM. For the same compound, the GI50 [7] was 1680 nM, the TGI [7] was 3200 nM and the GI50 [8] was 1940 nM. For the same compound, the TGI [8] was 3470 nM, the GI50 [9] was 1970 nM and the TGI [9] was 3540 nM. For the same compound, the GI50 [10] was 1790 nM, the TGI [10] was 3760 nM and the GI50 [11] was 1570 nM. For the same compound, the TGI [11] was 3120 nM, the GI50 [12] was 1410 nM and the TGI [12] was 2780 nM. For the same compound, the GI50 [13] was 1730 nM, the TGI [13] was 3270 nM and the GI50 [14] was 1660 nM. The TGI [14] was 3090 nM, the GI50 [15] was 1720 nM and the TGI [15] was 3290 nM. It also gave a GI50 [16] of 2500 nM, a TGI [16] of 7070 nM and a GI50 [17] of 1630 nM. For the same compound, the TGI [17] was 3130 nM, the GI50 [18] was 1640 nM and the TGI [18] was 3170 nM. The GI50 [19] was 1380 nM, the TGI [19] was 2940 nM and the GI50 [20] was 1980 nM. The TGI [20] was 3550 nM, the GI50 [21] was 1840 nM and the TGI [21] was 3430 nM. It also gave a GI50 [22] of 1680 nM, a TGI [22] of 3590 nM and a GI50 [23] of 2970 nM. For the same compound, the TGI [23] was 11700 nM, the GI50 [24] was 1720 nM and the TGI [24] was 3290 nM. It also gave a GI50 [25] of 1760 nM, a TGI [25] of 3300 nM and a GI50 [26] of 1420 nM. For the same compound, the TGI [26] was 2830 nM, the GI50 [27] was 1370 nM and the TGI [27] was 2810 nM. It also gave a GI50 [28] of 1720 nM, a TGI [28] of 3320 nM and a GI50 [29] of 1760 nM. The TGI [29] was 3290 nM, the GI50 [30] was 1730 nM and the TGI [30] was 3280 nM. It also gave a GI50 [31] of 1670 nM, a TGI [31] of 3130 nM and a GI50 [32] of 1890 nM. The TGI [32] was 3480 nM, the GI50 [33] was 1680 nM and the TGI [33] was 3180 nM. For the same compound, the GI50 [34] was 1570 nM, the TGI [34] was 3030 nM and the GI50 [35] was 1490 nM. It also gave a TGI [35] of 2940 nM, a GI50 [36] of 1790 nM and a TGI [36] of 3540 nM. For the same compound, the GI50 [37] was 1690 nM, the TGI [37] was 3380 nM and the GI50 [38] was 1920 nM. The TGI [38] was 3700 nM, the GI50 [39] was 2170 nM and the TGI [39] was 4930 nM. It also gave a GI50 [40] of 1970 nM, a TGI [40] of 3680 nM and a GI50 [41] of 1670 nM. The TGI [41] was 3220 nM, the GI50 [42] was 1940 nM and the TGI [42] was 3480 nM. For the same compound, the GI50 [43] was 1950 nM, the TGI [43] was 4040 nM and the GI50 [44] was 1720 nM. The TGI [44] was 3320 nM, the GI50 [45] was 1720 nM and the TGI [45] was 3100 nM. The GI50 [46] was 1950 nM, the TGI [46] was 3680 nM and the GI50 [47] was 3740 nM. It also gave a TGI [47] of 13900 nM, a GI50 [48] of 1930 nM and a TGI [48] of 3750 nM. For the same compound, the GI50 [49] was 1780 nM, the TGI [49] was 3510 nM and the GI50 [50] was 3430 nM. It also gave a TGI [50] of 13900 nM, a GI50 [51] of 1640 nM and a TGI [51] of 3170 nM.
